According to patent publication US20250205259A1, “CLASS OF 7-((FIVE-MEMBERED HETEROCYCLIC)METHYL)-8-CARBOXYLIC ACID-BENZO CYCLIC BORATE DERIVATIVES AND USES THEREOF” (priority 2022, published 2025):
Read-outs that look alike come from different tables or passages of the source.

Assays:
NDM-1 = NDM-1 (Klebsiella pneumoniae, UniProt C7C422); test: Inhibitory activity on MBL, fluorescent substrate FC-5; assay type: biochemical
NDM-5 = NDM-5 (Klebsiella pneumoniae, UniProt C7C422, M154L/V88L); test: as above; assay type: biochemical
IMP-1 = IMP-1 (Serratia marcescens, UniProt P52699); test: as above; assay type: biochemical
VIM-1 = VIM-1 (Pseudomonas aeruginosa, UniProt A0A0F7KYQ8); test: as above; assay type: biochemical
VIM-2 = VIM-2 (Escherichia coli, UniProt Q5U7L7); test: as above; assay type: biochemical; conditions: read-out: Inhibitory activity on MBL VIM-2 (IC50 class)
KPC-2 = KPC-2 (Klebsiella pneumoniae, UniProt Q9F663); test: Inhibitory activity on SBL, fluorescent substrate FC-5; assay type: biochemical; conditions: for IC50: read-out: Inhibitory activity on SBL KPC-2 (IC50 class)
TEM-1 = TEM-1 (Escherichia coli, UniProt P62593); test: as above; assay type: biochemical; conditions: for IC50: read-out: Inhibitory activity on SBL TEM-1 (IC50 class)
CTX-M-14 = CTX-M-14 (Escherichia coli, UniProt Q9L5C7); test: as above; assay type: biochemical; conditions: for IC50: read-out: Inhibitory activity on SBL CTX-M-14 (IC50 class)
OXA-48 = OXA-48 (Klebsiella pneumoniae, UniProt Q6XEC0); test: as above; assay type: biochemical; conditions: for IC50: read-out: Inhibitory activity on SBL OXA-48 (IC50 class)
AmpC = AmpC (UniProt P24735); test: as above; conditions: read-out: Inhibitory activity on SBL AmpC (IC50 class)
SHV-12 = target: T1, SHV-12 (UniProt P0AD64, L31Q/G234S/E235K, species not given); test: as above; assay type: biochemical; conditions: read-out: Inhibitory activity on SBL SHV-12 (IC50 class)
T1 sequence (P0AD64 1-286 L31Q/G234S/E235K): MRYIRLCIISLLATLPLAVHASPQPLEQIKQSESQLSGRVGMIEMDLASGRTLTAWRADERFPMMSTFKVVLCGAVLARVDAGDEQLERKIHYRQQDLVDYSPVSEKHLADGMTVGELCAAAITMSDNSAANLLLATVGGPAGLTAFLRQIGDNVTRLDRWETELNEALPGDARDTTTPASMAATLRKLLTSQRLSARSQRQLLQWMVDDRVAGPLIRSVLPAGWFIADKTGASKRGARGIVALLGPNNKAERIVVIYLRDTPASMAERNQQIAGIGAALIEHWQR

[1] = read-out: Inhibitory activity on MBL NDM-1 (IC50 class)
[2] = read-out: inhibitory activity at a nanomolar-level on NDM-1
[3] = read-out: Inhibitory activity on MBL NDM-5 (IC50 class)
[4] = read-out: inhibitory activity at a nanomolar-level on NDM-5
[5] = IMP-1 and/or IMP-4, read-out: inhibitory activity at a nanomolar-level on IMP-1 and/or IMP-4
[6] = read-out: Inhibitory activity on MBL IMP-1 (IC50 class)
[7] = read-out: Inhibitory activity on MBL VIM-1 (IC50 class)
[8] = VIM-1 and/or VIM-2, read-out: inhibitory activity at a nanomolar-level on VIM-1 and/or VIM-2

KPC-2, sequence (Q9F663 25-293 limits assumed): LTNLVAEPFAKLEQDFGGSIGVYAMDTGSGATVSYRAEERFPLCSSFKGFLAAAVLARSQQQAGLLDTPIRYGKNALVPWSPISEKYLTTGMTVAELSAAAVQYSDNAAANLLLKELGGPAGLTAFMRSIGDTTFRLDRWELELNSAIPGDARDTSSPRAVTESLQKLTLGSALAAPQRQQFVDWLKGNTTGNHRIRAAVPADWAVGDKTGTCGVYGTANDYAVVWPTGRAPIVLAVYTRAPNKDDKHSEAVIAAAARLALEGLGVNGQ
TEM-1, sequence (P62593 24-286 limits assumed): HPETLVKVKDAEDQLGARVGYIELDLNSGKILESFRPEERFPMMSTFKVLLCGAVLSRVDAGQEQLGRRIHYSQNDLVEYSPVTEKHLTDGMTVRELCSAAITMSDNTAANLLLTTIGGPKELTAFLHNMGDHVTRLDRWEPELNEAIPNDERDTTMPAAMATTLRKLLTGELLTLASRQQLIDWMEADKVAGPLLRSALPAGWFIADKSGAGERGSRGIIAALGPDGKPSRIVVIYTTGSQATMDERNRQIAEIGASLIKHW
CTX-M-14, sequence (Q9L5C7 entry or part of it): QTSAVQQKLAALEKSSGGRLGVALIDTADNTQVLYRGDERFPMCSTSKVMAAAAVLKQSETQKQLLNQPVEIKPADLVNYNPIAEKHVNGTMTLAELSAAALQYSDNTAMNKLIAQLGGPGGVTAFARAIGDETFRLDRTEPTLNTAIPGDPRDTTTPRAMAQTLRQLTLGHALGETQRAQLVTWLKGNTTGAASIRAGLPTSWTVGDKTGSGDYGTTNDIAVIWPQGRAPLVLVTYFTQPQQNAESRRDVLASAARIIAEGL
OXA-48, sequence (Q6XEC0 23-265 limits assumed): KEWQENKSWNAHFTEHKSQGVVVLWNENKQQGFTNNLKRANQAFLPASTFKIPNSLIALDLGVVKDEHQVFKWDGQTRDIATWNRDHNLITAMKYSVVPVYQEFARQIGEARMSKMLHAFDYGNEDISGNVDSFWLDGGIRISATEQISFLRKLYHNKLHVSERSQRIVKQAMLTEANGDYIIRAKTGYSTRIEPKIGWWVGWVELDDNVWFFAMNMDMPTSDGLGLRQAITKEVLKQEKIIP
NDM-5, sequence (C7C422 29-270 V88L/M154L): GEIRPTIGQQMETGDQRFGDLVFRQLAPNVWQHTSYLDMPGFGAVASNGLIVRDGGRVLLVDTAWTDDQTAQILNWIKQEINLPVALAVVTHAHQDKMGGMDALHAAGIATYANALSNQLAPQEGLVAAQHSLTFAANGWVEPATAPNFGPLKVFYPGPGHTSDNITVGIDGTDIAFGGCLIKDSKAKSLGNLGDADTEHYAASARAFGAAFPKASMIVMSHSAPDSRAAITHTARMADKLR
IMP-1, sequence (P52699 19-246 limits assumed): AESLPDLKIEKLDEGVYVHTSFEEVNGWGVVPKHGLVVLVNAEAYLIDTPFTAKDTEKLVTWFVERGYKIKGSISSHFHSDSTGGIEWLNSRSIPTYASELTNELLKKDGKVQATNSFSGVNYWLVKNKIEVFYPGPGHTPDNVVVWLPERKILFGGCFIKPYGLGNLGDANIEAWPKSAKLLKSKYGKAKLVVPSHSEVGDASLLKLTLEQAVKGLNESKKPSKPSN
NDM-1, sequence (C7C422 29-270 limits assumed): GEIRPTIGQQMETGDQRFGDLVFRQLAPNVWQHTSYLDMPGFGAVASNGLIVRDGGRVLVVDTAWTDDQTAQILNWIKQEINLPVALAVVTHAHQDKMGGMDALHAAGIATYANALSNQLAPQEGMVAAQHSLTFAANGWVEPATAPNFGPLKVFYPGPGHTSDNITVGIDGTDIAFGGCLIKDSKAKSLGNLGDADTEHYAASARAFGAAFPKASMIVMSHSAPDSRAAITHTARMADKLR

Compound | IC50 (NDM-1; [1]) | IC50 (NDM-1; [2]) | IC50 (NDM-5; [3]) | IC50 (NDM-5; [4]) | IC50 (IMP-1; [5]) | IC50 (IMP-1; [6]) | IC50 (VIM-1; [7]) | IC50 (VIM-2) | IC50 (KPC-2) | IC50 (TEM-1) | IC50 (CTX-M-14) | IC50 (OXA-48) | IC50 (AmpC) | IC50 (VIM-1; [8]) | inhibitory activity on KPC-2 compared to avibactam (KPC-2; comparison in words) | inhibitory activity on TEM-1 compared to avibactam (TEM-1; comparison in words) | IC50 (SHV-12) | inhibitory activity on CTX-M-14 compared to avibactam (CTX-M-14; comparison in words) | inhibitory activity on OXA-48 compared to avibactam (OXA-48; comparison in words)
N=C(N)N1CC(c2cn(Cc3ccc4c(c3C(=O)O)OB(O)CC4)nn2)C1 [Compound 49] | 10 to 1000 nM | < 1000 nM | 10 to 1000 nM | < 1000 nM | < 1000 nM | 10 to 1000 nM | 1000 to 100000 nM | 10 to 1000 nM | < 10 nM | 10 to 1000 nM | 10 to 1000 nM | 10 to 1000 nM | 1000 to 100000 nM |  |  |  |  |  | 
NCCCc1cn(Cc2ccc3c(c2C(=O)O)OB(O)CC3)nn1 [Compound 9] | 1000 to 100000 nM |  | 10 to 1000 nM |  |  | 1000 to 100000 nM | 1000 to 100000 nM | 10 to 1000 nM | < 10 nM | 10 to 1000 nM | 10 to 1000 nM | < 10 nM | > 100000 nM | < 1000 nM |  |  |  |  | 
O=C(O)c1c(Cn2ccc3cncnc32)ccc2c1OB(O)CC2 [Compound 55] | 10 to 1000 nM | < 1000 nM | 10 to 1000 nM | < 1000 nM | < 1000 nM | 10 to 1000 nM | 1000 to 100000 nM | 10 to 1000 nM | < 10 nM | < 10 nM | < 10 nM | 10 to 1000 nM | 1000 to 100000 nM |  |  |  |  |  | 
N=C(N)NCCc1cn(Cc2ccc3c(c2C(=O)O)OB(O)CC3)nn1 [Compound 10] | 10 to 1000 nM | < 1000 nM | 10 to 1000 nM | < 1000 nM |  | 1000 to 100000 nM | 1000 to 100000 nM | 10 to 1000 nM | < 10 nM | 10 to 1000 nM | 10 to 1000 nM | < 10 nM | > 100000 nM | < 1000 nM |  |  |  |  | 
NC1CCC(c2cn(Cc3ccc4c(c3C(=O)O)OB(O)CC4)nn2)CC1 (stereo not shown) [Compound 11] | 10 to 1000 nM | < 1000 nM | 10 to 1000 nM | < 1000 nM |  | 1000 to 100000 nM | 1000 to 100000 nM | 10 to 1000 nM | < 10 nM | 10 to 1000 nM | 10 to 1000 nM | < 10 nM | > 100000 nM | < 1000 nM |  |  |  |  | 
NCCc1ccc(-c2cn(Cc3ccc4c(c3C(=O)O)OB(O)CC4)nn2)cc1 [Compound 65] |  |  |  |  |  |  |  |  | < 10 nM |  |  |  | 1000 to 100000 nM |  |  |  |  |  | 
O=C(O)c1c(Cn2ncc3ccccc32)ccc2c1OB(O)CC2 [Compound 22] | 10 to 1000 nM | < 1000 nM | 10 to 1000 nM | < 1000 nM | < 1000 nM | 10 to 1000 nM | 10 to 1000 nM | 10 to 1000 nM | < 10 nM | 10 to 1000 nM | 10 to 1000 nM | < 10 nM | 1000 to 100000 nM | < 1000 nM |  |  |  |  | 
N=C(N)N1Cc2cnn(Cc3ccc4c(c3C(=O)O)OB(O)CC4)c2C1 [Compound 67] | 10 to 1000 nM |  | 1000 to 100000 nM |  |  | 1000 to 100000 nM | 1000 to 100000 nM | 10 to 1000 nM | < 10 nM | 10 to 1000 nM | 10 to 1000 nM | < 10 nM | > 100000 nM |  |  |  |  |  | 
N#Cc1ccn(Cc2ccc3c(c2C(=O)O)OB(O)CC3)n1 [Compound 18] | 10 to 1000 nM | < 1000 nM | 10 to 1000 nM | < 1000 nM |  | 1000 to 100000 nM | 1000 to 100000 nM | 10 to 1000 nM | < 10 nM | < 10 nM | 10 to 1000 nM | < 10 nM |  | < 1000 nM | better or comparable | better or comparable | 10 to 1000 nM | better or comparable | better or comparable
